Read-outs that look alike come from different tables or passages of the source.
Tests used:
[1] = test system: K562 human myelogeneous leukaemia cell line; assay: Cytotoxicity/growth inhibition assay (MTT), K562; type: cell-based
Procedure, shortened: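 Growth inhibition of P388 murine and K562 human leukaemia cells measured by MTT assay.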

[2] = test system: colchicine binding site on tubulin; assay: Competition for the colchicine binding site on tubulin
tubulin [3] = test system: T1, tubulin; assay: Inhibition of tubulin assembly; type: biochemical; details: concentration required to reduce assembly of tubulin by 50%
T1 construct: other: concentration required to reduce assembly of tubulin by 50%
Method: (§1) The following assays (1–5) were carried out as described in our paper (Woods, et al, British Journal of Cancer, 71, 705–711 (1995)). In addition to the cell lines described in this paper, other established human cell lines (K562, HUVEC, H460, BE, H529, and HT29) were used in the cytotoxicity/growth inhibition assay. • (1) Inhibition of tubulin assembly. The figure quoted is the concentration required to reduce assembly of tubulin by 50%. Tubulin assembly is monitored by light scatter/absorption at 350 nm.

A2780 = assay: Cytotoxicity/growth inhibition assay (MTT), A2780; type: cell-based
Method: as §1
(§2) (2) Competition for the colchicine binding site on tubulin. The figure quoted represents the % of ^3H-colchicine bound following co-incubation of test compound and ^3H-cochicine with isolated tubulin. Where ester pro-drugs were used the experiments were carried out in the presence and absence of porcine liver esterase. • (3) Cytotoxicity/growth inhibition assay. This was carried out by the MTT assay. • (4) Permeability (shape-change) assay in endothelial cells. This was carried out using a method based on that of Watts et al. (Anticancer Res., 17, 71–75, (1997)). This involved the diffusion of a fluorescently labelled dextran through a barrier of endothelial cells (HUVEC) grown to confluence on a porous membrane. The effect of agents to alter the shape of these cells results in an increase in the permeability of the cells to the dye. The figure represents the increase in permeability over control cultures when drug is added (30 minutes, 1 mM.). • (5) Experiments to study the anti-vascular effects of these agents were carried out as described previously by our group. (Zhao et al, European Journal of Nuclear Medicine, 26, 231–238 (1999)). The anti-vascular effects of the agents were monitored by either positron emission tomography (PET) or by histologogical examination following treatment of mice bearing T50:80 murine breast tumours, or H460 human lung tumours. • (6) Anti-tumour efficacy of agents was determined in xenografts of H460 human lung cancer. Animals (n=5) were trated either with 5 daily injections and tumour size measured with time following treatment. • (7) The pharmacokinetic profile of agents was determined in mice following injection with drug. Blood was taken at various times following treatment and analysed by HPLC with UV detection. The HPLC conditions were isocratic using a 5 micron C18 BDS column (150×4.6) ad eluting with 75% MeOH in water with a detection wavelength of 290 nm. […] (AND(P)H:quinone oxidoreductace, EC 1.6.99.2). DT-diaphorase is an enzyme over-expressed in a number of human tumours. […] This two-electron reducing enzyme can be used to selectively activate prodrugs within cancers which over-express the enzyme.

[4] = test system: colchicine binding site on tubulin; assay: Competition for the colchicine binding site on tubulin; details: % of 3H-colchicine bound; for Colchicine displacement protein:drug 1:10 (with esterase): with porcine liver esterase
Method: as §2, with “This was carried out using a method based on that of Watts et al. (Anticancer Res., 17, 71–75, (1997)).” left out, “(Zhao et al, European Journal of Nuclear Medicine, 26, 231–238 (1999)).” left out, “detection.” for “detection. The HPLC conditions were isocratic using a 5 micron C18 BDS column (150×4.6) ad eluting with 75% MeOH in water with a detection wavelength of 290 nm.”

A2780/ADR = assay: Cytotoxicity/growth inhibition assay (MTT), A2780/ADR; type: cell-based
Method: as §1, §2

HUVEC = assay: Growth inhibition studies using HUVEC; type: cell-based, human; details: Homo sapiens, HUVEC
Method: as §1, §2

[5] = test system: P388 murine leukaemia cell line; assay: Cytotoxicity/growth inhibition assay (MTT), P388; type: cell-based; details: Mus musculus, P388, MTT
Method: as §2, with “This was carried out using a method based on that of Watts et al. (Anticancer Res., 17, 71–75, (1997)).” left out, “(Zhao et al, European Journal of Nuclear Medicine, 26, 231–238 (1999)).” left out, “detection.” for “detection. The HPLC conditions were isocratic using a 5 micron C18 BDS column (150×4.6) ad eluting with 75% MeOH in water with a detection wavelength of 290 nm.”

tubulin [6] = assay: CD IC50 (Tables 12-26, abbreviation not defined); type: binding
K562 = K562 cell cycle analysis; type: cell-based, human; details: K562; for % of cells in G0–G1 / % of cells in G2-M / % of cells in S phase: of cells with DNA content = 2 n or >2 n
tubulin [7] = assay: MA IC50 (Tables 12-26, abbreviation not defined); type: biochemical
[8] = Homo sapiens, K562, MTT, read-out: K562 IC50
[9] = Homo sapiens, A2780, read-out: A2780 IC50
[10] = Homo sapiens, A2780, read-out: IC50 (nM) A2780
[11] = Homo sapiens, K562, Table 22, read-out: MTT (K582) IC50

| SMILES | IC50 [1, 8] | IC50 (tubulin [3]) | Colchicine displacement protein:drug 1:10 (with esterase) [4] | Colchicine displacement protein:drug 1:10 (without esterase) [4] | IC50 (A2780; [10]) | IC50 (A2780/ADR; A2780 ADR) | IC50 (HUVEC) | IC50 (tubulin [6]) | % of cells with DNA content <2 n (K562) | % of cells in G0–G1 (K562) | % of cells in G2-M (K562) | % of cells in S phase (K562) | IC50 (tubulin [7]) | further results |
| --- | --- | --- | --- | --- | --- | --- | --- | --- | --- | --- | --- | --- | --- | --- |
| COc1cc(C=Cc2cc(F)c(OC)c(F)c2)cc(OC)c1OC [Compound 00-82] | 0.05 µM | 7.2 µM | – | – | – | – | – | – | – | – | – | – | – | Colchicine % Inhibition [2]: 39.5%; IC50 (A2780; [9]): 60 nM |
| COc1ccc(C=Cc2cc(OC)c(OC)c(OC)c2)c(F)c1F [Compound 00-105] | 0.02 µM | > 100 µM | – | – | – | – | – | – | – | – | – | – | – | Colchicine % Inhibition [2]: 3.6% |
| COc1ccc(C=Cc2cc(OC)c(OC)c(OC)c2)cc1OC(=O)C(Cc1ccccc1)NC(=O)OC(C)(C)C (centres unmarked) [Compound 33, Boc-Phenylalanine Combretastatin A-4] | – | 3.6 µM | 2% | 92% | 2.8 nM | 4 nM | – | – | – | – | – | – | – | – |
| CCC(C)C(NC(=O)OC(C)(C)C)C(=O)Oc1cc(C=Cc2cc(OC)c(OC)c(OC)c2)ccc1OC (centres unmarked) [Compound 34] | – | 6.2 µM | 2% | 65% | > 60 nM | > 60 nM | – | – | – | – | – | – | – | – |
| COc1ccc(/C=C\c2cc(OC)c(OC)c(OC)c2)cc1OC(=O)CNC(=O)OC(C)(C)C [Compound 35] | – | 7.5 µM | 4% | 65% | 4.3 nM | 5 nM | – | – | – | – | – | – | – | – |
| COc1ccc(C=Cc2cc(OC)c(OC)c(OC)c2)cc1OC(=O)C(Cc1c[nH]c2ccccc12)NC(=O)OC(C)(C)C (centres unmarked) [Compound 36] | – | 4 µM | – | – | 1.7 nM | 2 nM | – | – | – | – | – | – | – | – |
| COc1ccc(C=Cc2cc(OC)c(OC)c(OC)c2)cc1OC(=O)C(CCSC)NC(=O)OC(C)(C)C (centres unmarked) [Compound 37] | – | 6 µM | 2% | 88% | 6.7 nM | 9.1 nM | – | – | – | – | – | – | – | – |
| COc1ccc(C=Cc2cc(OC)c(OC)c(OC)c2)cc1OC(=O)C(CC(C)C)NC(=O)OC(C)(C)C (centres unmarked) [Compound 38] | – | 7.8 µM | – | 72% | 14 nM | 27 nM | – | – | – | – | – | – | – | – |
| COc1ccc(C=Cc2cc(OC)c(OC)c(OC)c2)cc1OC(=O)C(C)NC(=O)OC(C)(C)C (centres unmarked) [Compound 39] | – | 8 µM | 2% | 77% | 2.7 nM | 4.6 nM | – | – | – | – | – | – | – | – |
| COc1ccc(/C=C\c2cc(OC)c(OC)c(OC)c2)cc1OC(=O)C(Cc1c[nH]cn1)NC(=O)OC(C)(C)C (centres unmarked) [Compound 40] | – | 7 µM | 4% | 2% | – | – | – | – | – | – | – | – | – | IC50 (A2780; read-out: IC50 (nM) A2780): 2.2 nM; IC50 (A2780/ADR): 4.3 nM |
| COc1ccc(C=Cc2cc(OC)c(OC)c(OC)c2)cc1OC(=O)C1CCCN1C(=O)OC(C)(C)C (centres unmarked) [Compound 41] | – | 9 µM | 2% | 78% | 29 nM | 39 nM | – | – | – | – | – | – | – | – |
| COc1ccc(/C=C\c2cc(OC)c(OC)c(OC)c2)cc1OC(=O)[C@@H](CCSC)NC(=O)OC(C)(C)C [Compound 42] | – | 3.5 µM | 2% | – | 2.9 nM | 2.9 nM | – | – | – | – | – | – | – | – |
| COc1ccc(/C=C\c2cc(OC)c(OC)c(OC)c2)cc1OC(=O)[C@@H](Cc1c[nH]c2ccccc12)NC(=O)OC(C)(C)C [Compound 43] | – | 3 µM | 2% | – | 3.3 nM | 3.8 nM | – | – | – | – | – | – | – | – |
| COc1ccc(/C=C\c2cc(OC)c(OC)c(OC)c2)cc1OC(=O)C(Cc1ccc(O)cc1)NC(=O)OC(C)(C)C (centres unmarked) [Compound 44] | – | – | – | – | – | – | – | – | – | – | – | – | – | IC50 (A2780; read-out: IC50 (nM) A2780): 4.5 nM; IC50 (A2780/ADR): 6.4 nM |
| COc1cc(C=Cc2ccc(N(C)C)cc2)cc(OC)c1OC [Compound 97-65] | – | 100 µM | – | – | – | – | 0.35 µM | – | – | – | – | – | – | IC50 [5]: 0.18 µM; IC50 (A2780; [9]): 95 nM |
| COc1ccc(/C=C\c2cc(C)c(C)c(C)c2)cc1 [Compound 117] | 0.31 µM | – | – | – | – | – | > 1 µM | > 25 µM | 15% | 3% | 87% | 10% | 0.65 µM | – |
| COc1ccc(/C=C\c2cc(C)c(C)c(C)c2)cc1F [Compound 120] | 0.14 µM | – | – | – | – | – | 0.46 µM | 10 µM | 23% | 6% | 77% | 17% | 0.7 µM | – |
| COc1ccc(/C=C\c2cc(C)c(C)c(C)c2)cc1O [Compound 133] | – | – | – | – | – | – | 0.05 µM | 10 µM | 6% | 3% | 91% | 6% | 0.12 µM | IC50 ([1]; MTT, read-out: K562 IC50): 0.02 µM |
| COc1ccc(C=C(C)c2cc(OC)c(OC)c(OC)c2)cc1O [Compound 210] | 0.04 µM | – | – | – | – | – | 0.09 µM | 6 µM | 23% | 5% | 73% | 22% | 0.13 µM | IC50 [1, 11]: 0.04 µM |
| COc1ccc(C=C(C)c2cc(OC)c(OC)c(OC)c2)cc1 [Compound 213] | – | – | – | – | – | – | 0.35 µM | > 25 µM | 23% | 5% | 73% | 21% | 1.3 µM | IC50 [1, 11]: 0.1 µM |
| CCC(=Cc1ccc(OC)c(O)c1)c1cc(OC)c(OC)c(OC)c1 [Compound 219] | – | – | – | – | – | – | 0.22 µM | > 25 µM | 24% | 7% | 74% | 19% | 0.13 µM | IC50 [1, 11]: 0.12 µM |
| CCOc1cc(C=Cc2ccc(OC)c(F)c2)cc(OCC)c1OCC [Compound 251] | 0.044 µM | – | – | – | – | – | 0.19 µM | > 25 µM | 24% | 7% | 75% | 18% | 1.25 µM | – |
| CCOc1cc(C=Cc2ccc(OC)c(O)c2)cc(OCC)c1OCC [Compound 253] | 0.018 µM | – | – | – | – | – | 0.05 µM | 15.5 µM | 4% | 3% | 92% | 6% | 0.5 µM | – |

From US7220784B2, “Substituted stilbenes and their reactions” (priority 2000, dated 2007)
